Results: the supplement of paper PMC10307832

Key:
Experiment in all cases: relative viability (nuclei count vs DMSO), 5 days (fraction); higher = more cells survive
A-427 = tested on: A-427
In short: (§1)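 Lung cancer cell lines in 1536-well plates got either a single drug or a fixed anchor-drug dose together with five library-drug doses (not always all listed) in √10 steps, by pin tool, on the day after seeding. Nuclei were counted after 5 days, and relative viability is the treated-to-vehicle ratio of nuclei counts. Values are medians of duplicate plates.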

COR-L 105 = tested on: COR-L 105
In short: as §1

ChaGo-K-1 = tested on: ChaGo-K-1
In short: as §1

EKVX = tested on: EKVX
In short: as §1

EMC-BAC-2 = tested on: EMC-BAC-2
In short: as §1

H3255 = tested on: H3255
In short: as §1

HCC-366 = tested on: HCC-366
In short: as §1

LK-2 = tested on: LK-2
In short: as §1

LOU-NH91 = tested on: LOU-NH91
In short: as §1

NCI-H1666 = tested on: NCI-H1666
In short: as §1

NCI-H1734 = tested on: NCI-H1734
In short: as §1

NCI-H1755 = tested on: NCI-H1755
In short: as §1

NCI-H1792 = tested on: NCI-H1792
In short: as §1

NCI-H1975 = tested on: NCI-H1975
In short: as §1

NCI-H2170 = tested on: NCI-H2170
In short: as §1

NCI-H23 = tested on: NCI-H23
In short: as §1

NCI-H441 = tested on: NCI-H441
In short: as §1

NCI-H520 = tested on: NCI-H520
In short: as §1

NCI-H596 = tested on: NCI-H596
In short: as §1

PC-3 [JPC-3] = tested on: PC-3 [JPC-3]
In short: as §1

SK-MES-1 = tested on: SK-MES-1
In short: as §1

SW 900 = tested on: SW 900
In short: as §1

Compound: NC(=O)Nc1cc(-c2cccc(F)c2)sc1C(=O)N[C@H]1CCCNC1 [AZD7762] + O=C(c1cc(Cc2n[nH]c(=O)c3ccccc23)ccc1F)N1CCN(C(=O)C2CC2)CC1 [Olaparib] (partner 8 µM)
- relative viability (A-427; first compound 0.01 µM): 0.865
- relative viability (A-427; first compound 0.03162 µM): 0.767
- relative viability (A-427; first compound 0.1 µM): 0.78
- relative viability (A-427; first compound 0.3162 µM): 0.733
- relative viability (A-427; first compound 1 µM): 0.379
- relative viability (COR-L 105; first compound 0.01 µM): 0.699
- relative viability (COR-L 105; first compound 0.03162 µM): 0.643
- relative viability (COR-L 105; first compound 0.1 µM): 0.529
- relative viability (COR-L 105; first compound 0.3162 µM): 0.542
- relative viability (COR-L 105; first compound 1 µM): 0.516
- relative viability (ChaGo-K-1; first compound 0.01 µM): 0.394
- relative viability (ChaGo-K-1; first compound 0.03162 µM): 0.425
- relative viability (ChaGo-K-1; first compound 0.1 µM): 0.423
- relative viability (ChaGo-K-1; first compound 0.3162 µM): 0.415
- relative viability (ChaGo-K-1; first compound 1 µM): 0.379
- relative viability (EKVX; first compound 0.01 µM): 0.82
- relative viability (EKVX; first compound 0.03162 µM): 1.04
- relative viability (EKVX; first compound 0.1 µM): 0.62
- relative viability (EKVX; first compound 0.3162 µM): 0.844
- relative viability (EKVX; first compound 1 µM): 0.393
- relative viability (EMC-BAC-2; first compound 0.01 µM): 0.612
- relative viability (EMC-BAC-2; first compound 0.03162 µM): 0.628
- relative viability (EMC-BAC-2; first compound 0.1 µM): 0.626
- relative viability (EMC-BAC-2; first compound 0.3162 µM): 0.64
- relative viability (EMC-BAC-2; first compound 1 µM): 0.547
- relative viability (H3255; first compound 0.01 µM): 0.551
- relative viability (H3255; first compound 0.03162 µM): 0.542
- relative viability (H3255; first compound 0.1 µM): 0.59
- relative viability (H3255; first compound 0.3162 µM): 0.518
- relative viability (H3255; first compound 1 µM): 0.497
- relative viability (HCC-366; first compound 0.01 µM): 0.364
- relative viability (HCC-366; first compound 0.03162 µM): 0.305
- relative viability (HCC-366; first compound 0.1 µM): 0.278
- relative viability (HCC-366; first compound 0.3162 µM): 0.157
- relative viability (HCC-366; first compound 1 µM): 0.0818
- relative viability (LK-2; first compound 0.01 µM): 0.789
- relative viability (LK-2; first compound 0.03162 µM): 1
- relative viability (LK-2; first compound 0.1 µM): 0.729
- relative viability (LK-2; first compound 0.3162 µM): 0.623
- relative viability (LK-2; first compound 1 µM): 0.435
- relative viability (LOU-NH91; first compound 0.01 µM): 0.915
- relative viability (LOU-NH91; first compound 0.03162 µM): 0.914
- relative viability (LOU-NH91; first compound 0.1 µM): 0.867
- relative viability (LOU-NH91; first compound 0.3162 µM): 0.834
- relative viability (LOU-NH91; first compound 1 µM): 0.571
- relative viability (NCI-H1666; first compound 0.01 µM): 0.85
- relative viability (NCI-H1666; first compound 0.03162 µM): 0.973
- relative viability (NCI-H1666; first compound 0.1 µM): 1.06
- relative viability (NCI-H1666; first compound 0.3162 µM): 0.968
- relative viability (NCI-H1666; first compound 1 µM): 0.814
- relative viability (NCI-H1734; first compound 0.01 µM): 0.746
- relative viability (NCI-H1734; first compound 0.03162 µM): 0.663
- relative viability (NCI-H1734; first compound 0.1 µM): 0.72
- relative viability (NCI-H1734; first compound 0.3162 µM): 0.491
- relative viability (NCI-H1734; first compound 1 µM): 0.316
- relative viability (NCI-H1755; first compound 0.01 µM): 1.01
- relative viability (NCI-H1755; first compound 0.03162 µM): 0.92
- relative viability (NCI-H1755; first compound 0.1 µM): 0.957
- relative viability (NCI-H1755; first compound 0.3162 µM): 0.855
- relative viability (NCI-H1755; first compound 1 µM): 0.619
- relative viability (NCI-H1792; first compound 0.01 µM): 0.336
- relative viability (NCI-H1792; first compound 0.03162 µM): 0.421
- relative viability (NCI-H1792; first compound 0.1 µM): 0.364
- relative viability (NCI-H1792; first compound 0.3162 µM): 0.352
- relative viability (NCI-H1792; first compound 1 µM): 0.221
- relative viability (NCI-H1975; first compound 0.01 µM): 0.767
- relative viability (NCI-H1975; first compound 0.03162 µM): 0.682
- relative viability (NCI-H1975; first compound 0.1 µM): 0.638
- relative viability (NCI-H1975; first compound 0.3162 µM): 0.538
- relative viability (NCI-H1975; first compound 1 µM): 0.401
- relative viability (NCI-H2170; first compound 0.01 µM): 0.553
- relative viability (NCI-H2170; first compound 0.03162 µM): 0.579
- relative viability (NCI-H2170; first compound 0.1 µM): 0.535
- relative viability (NCI-H2170; first compound 0.3162 µM): 0.423
- relative viability (NCI-H2170; first compound 1 µM): 0.254
- relative viability (NCI-H23; first compound 0.01 µM): 0.311
- relative viability (NCI-H23; first compound 0.03162 µM): 0.287
- relative viability (NCI-H23; first compound 0.1 µM): 0.255
- relative viability (NCI-H23; first compound 0.3162 µM): 0.222
- relative viability (NCI-H23; first compound 1 µM): 0.168
- relative viability (NCI-H441; first compound 0.01 µM): 0.707
- relative viability (NCI-H441; first compound 0.03162 µM): 0.795
- relative viability (NCI-H441; first compound 0.1 µM): 0.675
- relative viability (NCI-H441; first compound 0.3162 µM): 0.555
- relative viability (NCI-H441; first compound 1 µM): 0.287
- relative viability (NCI-H520; first compound 0.01 µM): 0.367
- relative viability (NCI-H520; first compound 0.03162 µM): 0.364
- relative viability (NCI-H520; first compound 0.1 µM): 0.27
- relative viability (NCI-H520; first compound 0.3162 µM): 0.223
- relative viability (NCI-H520; first compound 1 µM): 0.194
- relative viability (NCI-H596; first compound 0.01 µM): 0.723
- relative viability (NCI-H596; first compound 0.03162 µM): 0.631
- relative viability (NCI-H596; first compound 0.1 µM): 0.609
- relative viability (NCI-H596; first compound 0.3162 µM): 0.552
- relative viability (NCI-H596; first compound 1 µM): 0.478
- relative viability (PC-3 [JPC-3]; first compound 0.01 µM): 1.19
- relative viability (PC-3 [JPC-3]; first compound 0.03162 µM): 1.06
- relative viability (PC-3 [JPC-3]; first compound 0.1 µM): 1.12
- relative viability (PC-3 [JPC-3]; first compound 0.3162 µM): 1.05
- relative viability (PC-3 [JPC-3]; first compound 1 µM): 0.634
- relative viability (SK-MES-1; first compound 0.01 µM): 0.831
- relative viability (SK-MES-1; first compound 0.03162 µM): 0.828
- relative viability (SK-MES-1; first compound 0.1 µM): 0.506
- relative viability (SK-MES-1; first compound 0.3162 µM): 0.247
- relative viability (SK-MES-1; first compound 1 µM): 0.189
- relative viability (SW 900; first compound 0.01 µM): 0.887
- relative viability (SW 900; first compound 0.03162 µM): 0.835
- relative viability (SW 900; first compound 0.1 µM): 0.727
- relative viability (SW 900; first compound 0.3162 µM): 0.949
- relative viability (SW 900; first compound 1 µM): 0.47
